Results as given in patent US7572459B2, “Anionic or cationic dendrimer antimicrobial or antiparasitic compositions” (Starpharma Pty Ltd., priority 1998, dated 2009).

format: cell-based
Source text: • II The following assay results were obtained in an in vitro assay to test for inhibition of Trypanosoma (T) and Plasmodium (P) species.

Substance | Cytotoxicity MIC [µg/mL]
BHAlys31lys32(NHCSNHPhOP[O] [ONa]2)64 [BRI6181] | >100
PAMAM 4.0 EDA(NHCSNH-3,5 Ph [COOH]2)32 [BRI6195] | >100
PAMAM 4.0 EDA(NHCSNH SaccharinNa)32 [BRI6157] | >100
